Source: publication PMC6987120, “Structural insights into ATP hydrolysis by the MoxR ATPase RavA and the LdcI-RavA cage-like complex” (Communications Biology, 2020)

Key:
RavA = biological target: T1, RavA (Escherichia coli, UniProt P31473); experiment: cryo-EM, […] and […] A maps with flexible fitting; assay type: binding; details: 1 mM ADP; intersubunit site; spiral with five ADP, closed ring with four ADP per hexamer
T1 construct: homohexamer (6 copies), open spiral and C2-symmetric closed ring; site at the interface of adjacent monomers

LdcI–RavA complex [1] = biological target: T2, LdcI–RavA complex (Escherichia coli, UniProt P31473); experiment: cryo-EM, […] and […] A maps with flexible fitting; assay type: binding; details: 2 mM ADP, 10 mM MgCl2, 0.1 mM PLP, pH 7.9; low local resolution of RavA
T2 construct: purified RavA and LdcI mixed in vitro; LdcI expressed in a ppGpp-null E. coli MG1655 host; with Inducible lysine decarboxylase

LdcI–RavA complex [2] = biological target: T2, LdcI–RavA complex; experiment: ATPase assay, inorganic phosphate by Fiske and Subbarow; assay type: biochemical; details: 2 mM ATP, 10 mM MgCl2, 50 mM MES/Tris pH 5-9, 25 °C; three-fold molar excess of LdcI

T2 sequence (P31473 whole entry): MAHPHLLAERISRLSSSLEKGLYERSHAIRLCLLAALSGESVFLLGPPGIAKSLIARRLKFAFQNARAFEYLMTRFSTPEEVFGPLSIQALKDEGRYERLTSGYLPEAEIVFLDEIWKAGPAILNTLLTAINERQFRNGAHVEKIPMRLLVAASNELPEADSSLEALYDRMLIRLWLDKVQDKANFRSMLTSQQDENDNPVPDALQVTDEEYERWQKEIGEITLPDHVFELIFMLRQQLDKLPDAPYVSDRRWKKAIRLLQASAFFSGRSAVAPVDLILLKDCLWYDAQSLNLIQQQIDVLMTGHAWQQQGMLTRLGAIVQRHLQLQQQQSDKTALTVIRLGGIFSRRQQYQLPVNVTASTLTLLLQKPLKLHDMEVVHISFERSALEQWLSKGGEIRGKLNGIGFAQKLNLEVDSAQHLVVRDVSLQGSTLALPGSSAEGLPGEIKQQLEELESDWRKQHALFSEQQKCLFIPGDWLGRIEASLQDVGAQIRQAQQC
T2 sequence (P0A9H3 whole entry partner): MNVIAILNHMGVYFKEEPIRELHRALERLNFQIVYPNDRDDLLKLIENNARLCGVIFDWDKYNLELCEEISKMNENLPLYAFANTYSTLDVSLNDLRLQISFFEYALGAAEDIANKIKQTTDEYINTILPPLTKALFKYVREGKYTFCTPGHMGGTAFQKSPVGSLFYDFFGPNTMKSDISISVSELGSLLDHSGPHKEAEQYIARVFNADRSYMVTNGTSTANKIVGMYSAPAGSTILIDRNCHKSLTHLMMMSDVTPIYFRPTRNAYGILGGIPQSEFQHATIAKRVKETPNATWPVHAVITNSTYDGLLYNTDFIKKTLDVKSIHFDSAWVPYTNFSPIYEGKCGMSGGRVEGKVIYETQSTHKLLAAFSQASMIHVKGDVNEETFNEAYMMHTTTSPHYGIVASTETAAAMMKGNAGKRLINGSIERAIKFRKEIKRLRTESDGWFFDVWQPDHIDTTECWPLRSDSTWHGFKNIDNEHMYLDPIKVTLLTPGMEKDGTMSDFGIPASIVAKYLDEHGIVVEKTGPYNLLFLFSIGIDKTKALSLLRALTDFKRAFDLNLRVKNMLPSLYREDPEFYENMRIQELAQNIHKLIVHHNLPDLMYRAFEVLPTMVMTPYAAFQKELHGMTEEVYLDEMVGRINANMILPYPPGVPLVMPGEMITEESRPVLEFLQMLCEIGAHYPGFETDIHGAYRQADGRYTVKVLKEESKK
T1 sequence (P31473 whole entry): as the sequence (P31473 whole entry) above

Nc1ncnc2c1ncn2[C@@H]1O[C@H](COP(=O)(O)OP(=O)(O)O)[C@@H](O)[C@H]1O [ADP]
cryo-EM, 5.96 and 6.94 A maps with flexible fitting (RavA): The map contains densities attributed to five ADP molecules bound to the interface | cryo-EM, 7.6 and 7.8 A maps with flexible fitting (LdcI–RavA complex [1]): Cryo-EM maps of the two classes of the LdcI–RavA complex in ADP-bound state

Nc1ncnc2c1ncn2[C@@H]1O[C@H](COP(=O)(O)OP(=O)(O)OP(=O)(O)O)[C@@H](O)[C@H]1O [ATP]
ATPase assay, inorganic phosphate by Fiske and Subbarow (LdcI–RavA complex [2]): RavA is still able to efficiently hydrolyse ATP in the LdcI–RavA cage
